“Also recorded” adds a separate entry of the source.
Columns and labels:
human small bronchi [1] = assay: Human bronchi contraction induced by acetylcholine, organ bath; details: 0.1 mM and 1 mM, 15 min before the stimulus; ACh 100 nM-10 mM
Procedure: The human samples were taken from 10 different patients who were undergoing lung resection for a solitary peripheral carcinoma. […] The bronchial rings (from 3 to 11 from each sample) were taken from the lobar or segmental bronchus of the lobe obtained at surgery, away from the tumor site.
Tissues were fixed to the base of the organ bath and connected to an isometric force transducer. […] During the initial stabilization period (90 min) tissues were washed six times. A challenge with acetyl choline (Ach) (1 mM) was performed and after washing, the tissue was allowed to equilibrate for an additional 90 min. To prevent peptide degradation phosphoramidon (1 μM) was added to the bath. Viability of the tissues was tested with the response to ACh (1 mM).
Experiments in human bronchi were performed in the presence of L-NAME (100 μM) to block the production of nitric oxide, indomethacin (5 μM) to block the production of prostanoids and propranolol (1 μM) to block β-adrenoceptors.
(§1) Values were presented as mean±standard error of the mean (SEM). Comparisons between groups were made by one way analysis of variance (ANOVA) and the Dunnett's test for multiple comparisons. A p value of <0.05 was considered significant.

[2] = test system: citric acid-induced cough; assay: Citric acid-induced cough in guinea pigs; details: for inhibition of the cough response to citric acid inhalation: aerosolized 1 mM inhaled for 10 min prior to citric acid 0.25 M; for motor activity (behavioral effect, not quantified): guinea pigs, 1 mM aerosolized for 10 min
Procedure: After the period of acclimatisation to laboratory conditions, animals were individually placed in a transparent perspex box (20×10×10 cm, Vetrotecnica, Italy) ventilated with a constant airflow of 400 ml/min. The tussive agents (citric acid 0.25 M) was nebulised via a mini-ultrasonic nebuliser (Ugo Basile, Italy). […] The appearance of cough was detected by means of a tie-clip microphone (Sony, Japan) and confirmed by the characteristic posture of the animal. The cough sounds were recorded and digitally stored. The number of elicited cough efforts was subsequently counted by a blind observer.
All experiments were carried out at the same time of day. To elicit cough, guinea pigs were exposed to aerosols of citric acid for 10 min.
as §1

human small bronchi [3] = assay: Human bronchi contraction produced by electric field stimulation (EFS), organ bath; details: 0.1 mM and 1 mM; EFS 30 Hz, 0.5 ms, 10 sec, 70V; with L-NAME, indomethacin, propranolol
From the text: In a separate set of experiments, human bronchi were electrically stimulated (30 Hz, 0.5 ms pulse width, duration 10 sec, 70V).

[4] = test system: citric acid induced cough; details: guinea pigs; Lalloo et al., Trevisani et al.; cited from earlier work
rat spinal tissues = details: only after inflammation or activation of protein kinase C; Pain 2003, 105, 133-141; cited from earlier work

| SMILES | inhibition of the contraction caused by acetylcholine (human small bronchi [1]) | inhibition of the cough response to citric acid inhalation [2] | motor activity (behavioral effect, not quantified) [2] | effect on the contractile response produced by EFS (human small bronchi [3]) | effect on citric acid induced cough [4] | release of substance P and CGRP (rat spinal tissues) |
| --- | --- | --- | --- | --- | --- | --- |
| NC[C@]1(CC(=O)O)C[C@H]2CC[C@H]2C1 [Compound A, (1α, 3α,5α)(3-amino-methyl-bicyclo[3.2.0]hept-3-yl)-acetic acid] | did not produce any significant inhibition; also recorded: Absence of effect | significant inhibition | some degree of reduction in motor activity | significant (p<0.05) inhibitory effect | – | – |
| Oc1cc2c(cc1O)CN(C(=S)NCCc1ccc(Cl)cc1)CCC2 [capsazepine] | – | – | – | – | inhibited this response | – |
| NCC1(CC(=O)O)CCCCC1 [gabapentin, 1-(aminomethyl)-cyclohexylacetic acid] | did not produce any significant inhibition; also recorded: Absence of effect | significant inhibition | some degree of reduction in motor activity | significant (p<0.05) inhibitory effect | – | reduce release of substance P and CGRP |
| C=C(C)[C@]12C[C@@H](C)[C@@]34O[C@](Cc5ccccc5)(O[C@@H]1[C@@H]3C=C(COC(=O)Cc1cc(I)c(O)c(OC)c1)C[C@]1(O)C(=O)C(C)=C[C@@H]41)O2 [iodo-resiniferatoxin] | – | – | – | – | inhibited this response | – |
| CC(C)C[C@H](CN)CC(=O)O [pregabalin, (S)-(+)-4-amino-3-(2-methylpropyl)butanoic acid] | – | – | – | – | – | reduce release of substance P and CGRP |

From patent publication US20040143014A1, “Therapeutic use of alpha-2-delta ligands” (Pfizer Inc, priority 2002, published 2004)
